The values below come from patent publication US20170298081A1, “CONDENSED HETEROCYCLIC COMPOUND” (KASUMA PARTNERS INC., priority 2014, published 2017).

The first assay relates to PCSK9 protein. Briefly: Influence of test compound on PCSK9 protein production amount in HepG2 cells (ELISA). The assay is classed as cell-based, human. To be noted: about 24 hours treatment, intracellular PCSK9 protein by ELISA, read-out: IC50 (50% PCSK9 production-suppressing concentration). Here is the method:
A test compound was added to culture supernatant of cells of the human liver cancer-derived cell strain, HepG2 cells, and intracellular amount of the PCSK9 protein was measured by the enzyme-linked immunosorbent assay (ELISA) after 24 hours. Specifically, the HepG2 cells were inoculated into wells of a 96-well microplate at a density of 5 to 7.5×10^4 cells/well, and the culture supernatant was exchanged with the MEM medium containing 10% lipoprotein deficient serum (LPDS) on the next day. After the cells were further cultured for one day, the culture supernatant was exchanged with the 10% LPDS-containing MEM medium containing a test compound, and the cells were treated with the compound for about 24 hours. The medium for treating the cells was prepared by dissolving the test compound in dimethyl sulfoxide (DMSO), and adding the resulting solution to the 10% LPDS-containing medium. The medium for treating cells for control was prepared by adding DMSO to the 10% LPDS-containing medium at the same final concentration. After completion of the treatment of the cells, a solubilization buffer (1% Nonidet P-40 in phosphate buffered saline) was added to the cells to extract proteins, and they were used as a sample.
The PCSK9 protein concentration and the total protein concentration in the sample were measured by using Human PCSK9 ELISA Kit produced by R&D Systems (Cat. No. DPC900), and BCA Protein Assay Reagent. Kit produced by Thermo Scientific (Cat. No. 23227) according to the protocols described in the attached manuals, respectively. The PCSK9 protein concentration in each sample was calculated as a concentration per unit mass of proteins. Then, by using PCSK9 production suppressing ratios at various concentrations obtained in accordance with the equation mentioned below, 50% PCSK9 production-suppressing concentration (IC50) of each compound was calculated with a linear regression equation.
Equation: PCSK9 production-suppressing ratio (%)=[(Average PCSK9 protein concentration in control group−Average PCSK9 protein concentration in test compound-treated group)/Average PCSK9 protein concentration in control group]×100
On the technique in general: ELISA stands for enzyme-linked immunosorbent assay.
On to `OCCNc1ccc2nc(-c3ccc(C(F)(F)F)cc3)oc2c1C(F)(F)F` [Example 21, 6-(2-Hydroxyethylamino)-7-trifluoromethyl-2-(4-trifluoromethylphenyl)benzoxazole], for which the IC50 was 5.85 nM.

For the compound `N#Cc1ccc(N)c2nc(-c3ccc(C(F)(F)F)cc3)oc12` [Example 38], the IC50 is 27.3 nM.

Consider `Fc1c(C(F)(F)F)ccc2nc(-c3ccc(C(F)(F)F)cc3)oc12` [Example 3, 7-Fluoro-6-trifluoromethyl-2-(4-trifluoromethylphenyl)benzoxazole], for which the IC50 is 8.19 nM.

In the case of `COc1cc(C#N)c(Cl)c2oc(-c3ccc(C(F)(F)F)cc3)nc12` [Example 22, 7-Chloro-6-cyano-4-methoxy-2-(4-trifluoromenthylphenyl)benzoxazole], the IC50 was determined as 99 nM.

Turning to `CCc1nc2c(ccc3oc(-c4ccc(C(F)(F)F)cc4)nc32)o1` [Example 23, 2-Ethyl-7(4-trifluoromethylphenyl)benzo[2,1-d:3,4-d′]bisoxazole], the IC50 worked out at 52.3 nM.

Regarding `N#Cc1cc(Cl)c2nc(-c3ccc(C(F)(F)F)cc3)oc2c1` [Example 11, 4-Chloro-6-cyano-2-(4-trifluoromethylphenyl)benzoxazole], the IC50 is 1.34 nM.

In the case of `CN(C)c1nc2c(ccc3oc(-c4ccc(C(F)(F)F)cc4)nc32)s1` [Example 40, 7-Dimethylamino-2-(4-trifluoromethylphenyl)thiazolo[4,5-e]benzoxazole], the IC50 came to 3.97 nM.

Consider `FC(F)(F)c1ccc(-c2nc3ccc(Cl)c(C(F)(F)F)c3o2)cc1` [Example 1, 6-Chloro-7-trifluoromethyl-2-(4-trifluoromethylphenyl)benzoxazole], for which the IC50 was found to be 0.802 nM.

As to `Fc1c(Cl)cc2nc(-c3ccc(C(F)(F)F)cc3)oc2c1Cl` [Example 12, 5,7-Dichloro-6-fluoro-2-(4-trifluoromethylphenyl)benzoxazole], the IC50 was found to be 2.94 nM.

`Nc1ccc(Br)c2oc(-c3ccc(C(F)(F)F)cc3)nc12` [Example 33, 4-Amino-7-bromo-2-(4-trifluoromethylphenyl)benzoxazole]: the IC50 was 4.96 nM.

Consider `FC(F)(F)c1ccc(-c2nc3c(ccc4cc[nH]c43)o2)cc1` [Example 31, 2-(4-Trifluoromethylphenyl)-8H-pyrrolo[2,3-e]benzoxazole], for which the IC50 was 29.7 nM.

As for `FC(F)(F)c1ccc(-c2nc3ccc(C(F)(F)F)c(Cl)c3o2)cc1` [Example 7, 7-Chloro-6-trifluoromethyl-2-(4-trifluoromethylphenyl)benzoxazole], the IC50 worked out at 0.036 nM.

As to `FC(F)(F)c1ccc(-c2nc3cc(Cl)c(C(F)(F)F)cc3o2)cc1` [Example 27, 5-Chloro-6-(trifluoromethyl)-2-[4-(trifluoromethyl)phenyl]benzoxazole], the IC50 worked out at 12.3 nM.

With `COc1ccc2cc3[n+](cc2c1OC)CCc1cc2c(cc1-3)OCO2` [Berberine chloride, reference compound], the IC50 was above 10000 nM.

Consider `NCc1cccc2oc(-c3ccc(C(F)(F)F)cc3)nc12` [Example 41, 4-Aminomethyl-2-(4-trifluoromethylphenyl)benzoxazole], for which the IC50 amounted to 19.2 nM.

Take `FC(F)(F)c1ccc(-c2nc3ccc(NC4CC4)c(C(F)(F)F)c3o2)cc1` [Example 20, 6-(Cyclopropylamino)-7-trifluoromethyl-2-(4-trifluoromethylphenyl)benzoxazole]: the IC50 was 3.95 nM.

Consider `N#Cc1ccc2nc(-c3ccc(C(F)(F)F)cc3)oc2c1Cl` [Example 9, 7-Chloro-6-cyano-2-(4-trifluoromethylphenyl)benzoxazole], for which the IC50 stood at 0.0182 nM.

Turning to `O=C(O)CCC(=O)Nc1ccc2nc(-c3ccc(C(F)(F)F)cc3)oc2c1C(F)(F)F` [Example 18, 6-(3-Carbonylpropanamido)-7-trifluoromethyl-2-(4-trifluoromethylphenyl)benzoxazole], the IC50 is 16.3 nM.

Turning to `N#Cc1ccc2nc(-c3ccc(C(F)(F)F)cc3)oc2c1` [Example 29, 6-Cyano-2-[4-(trifluoromethyl)phenyl]benzoxazole], the IC50 turned out to be 27 nM.

As to `FC(F)(F)c1ccc(-c2nc3ccc(C(F)(F)F)cc3o2)cc1` [Example 24, 6-(Trifluoromethyl)-2-[4-(trifluoromethyl)phenyl]benzoxazole], the IC50 is 21.4 nM.

For the compound `Nc1c(-c2ccc(C(F)(F)F)cc2)[nH]c2c(Cl)c(Cl)ccc12` [Example 45, 3-Amino-6,7-dichloro-2-(4-trifluoromethylphenyl)indole], the IC50 was 2.68 nM.

As for `FC(F)(F)c1ccc(-c2nc3c(Cl)c(C(F)(F)F)ccc3o2)cc1` [Example 4, 4-Chloro-5-trifluoromethyl-2-(4-trifluoromethylphenyl)benzoxazole], the IC50 amounted to 0.426 nM.

As to `N#Cc1ccc2nc(-c3ccc(C(F)(F)F)cc3)oc2c1C(F)(F)F` [Example 19, 6-Cyano-7-trifluoromethyl-2-(4-trifluoromethylphenyl)benzoxazole], the IC50 was found to be 0.188 nM.

`Clc1ccc2nc(-c3nc4c(Cl)cccc4o3)sc2c1` [Example 44, 4-Chloro-2-(6-chloro-benzothiazol-2-yl)benzoxazole]: the IC50 is 13.9 nM.

Turning to `FC(F)(F)c1ccc(-c2nc3ccc(C4CC4)c(C(F)(F)F)c3o2)cc1` [Example 14, 6-Cyclopropyl-7-trifluoromethyl-2-(4-trifluoromethylphenyl)benzoxazole], the IC50 came to 4.54 nM.

On to `Nc1c(Cl)cc(Cl)c2oc(-c3ccc(C(F)(F)F)cc3)nc12` [Example 34, 4-Amino-5,7-dichloro-2-(4-trifluoromethylphenyl)benzoxazole], for which the IC50 is 20.2 nM.

In the case of `CC(=O)Nc1ccc2nc(-c3ccc(C(F)(F)F)cc3)oc2c1C(F)(F)F` [Example 16, 6-Acetamido-7-trifluoromethyl-2-(4-trifluoromethylphenyl)benzoxazole], the IC50 was 2.08 nM.

On to `FC(F)(F)c1ccc(-c2nc3cccc(C(F)(F)F)c3o2)cc1` [Example 25, 7-(Trifluoromethyl)-2-[4-(trifluoromethyl)phenyl]benzoxazole], for which the IC50 was 24.5 nM.

On to `FC(F)(F)c1ccc(-c2nc3cc(C(F)(F)F)cc(Cl)c3o2)cc1` [Example 28, 7-Chloro-5-(trifluoromethyl)-2-[4-(trifluoromethyl)phenyl]benzoxazole], for which the IC50 stood at 1.35 nM.

Take `FC(F)(F)c1ccc(-c2nc3c(C(F)(F)F)ccc(Cl)c3o2)cc1` [Example 8, 7-Chloro-4-trifluoromethyl-2-(4-trifluoromethylphenyl)benzoxazole]: the IC50 is 0.153 nM.

As for `CCN(CC)c1nc2c(ccc3cc(-c4ccc(C(F)(F)F)cc4)[nH]c32)o1` [Example 47, 2-Diethylamino-7-(4-trifluoromenthylphenyl)-8H-pyrrolo[2,3-e]benzoxazole], the IC50 amounted to 45.4 nM.

`N#Cc1cc(Cl)c2oc(-c3ccc(C(F)(F)F)cc3)nc2c1N` [Example 36, 4-Amino-7-chloro-5-cyano-2-(4-trifluoromethylphenyl)benzoxazole]: the IC50 amounted to 5.17 nM.

With `[O-][n+]1ccc2c(ccc3oc(-c4ccc(C(F)(F)F)cc4)nc32)c1` [Example 43, 2-[4-(Trifluoromethyl)phenyl]oxazolo[4,5-f]isoquinoline 7-oxide], the IC50 was determined as 25.6 nM.

As for `FC(F)(F)c1ccc(-c2nc3ccc(I)c(Cl)c3o2)cc1` [Example 6, 7-Chloro-6-iodo-2-(4-trifluoromethylphenyl)benzoxazole], the IC50 turned out to be 2.5 nM.

The next assay has as its system dietary hyperlipidemia hamsters. The assay can be described thus: Efficacy test in dietary hyperlipidemia hamsters (LDL cholesterol decreasing ratio). The note with it: dose 0.01 mg/kg, oral once a day for seven days, high fat diet hamsters. The assay is classed as in vivo, Slc:Syrian male hamsters. Here is the method: As test animals, the Slc:Syrian male hamsters were used. In order to create dietary hyperlipidemia models, the hamsters were fed ad libitum with a high fat diet (mixed diet of 0.5% cholesterol and 10% palm oil) for a period from two weeks before the start of the administration of the test compound to the end of the experiment. Blood was collected one day before the day of the start of the administration, and the total blood cholesterol concentration was measured by the direct method using an automatic analyzer. On the basis of this total blood cholesterol concentration, the animals were divided into groups. From the next day, the test compound was orally administered once a day for seven days, and the animals were dissected on the day following the day of the final administration. The LDL-cholesterol concentration in the collected blood was measured by the direct method using an automatic analyzer, and LDL cholesterol decreasing ratio was calculated in accordance with the following equation for each group.
Equation: LDL cholesterol decreasing ratio (%)=[(Average LDL-cholesterol concentration of control group−Average LDL-cholesterol concentration of test compound-administered group)/Average LDL-cholesterol concentration of control group]×100
For `FC(F)(F)c1ccc(-c2nc3ccc(C(F)(F)F)c(Cl)c3o2)cc1` [Example 7, 7-Chloro-6-trifluoromethyl-2-(4-trifluoromethylphenyl)benzoxazole], the “LDL cholesterol decreasing ratio (%)” value is given as 45.5%.

The assay is the same for the next values; noted with them: dose 0.04 mg/kg, oral once a day for seven days, high fat diet hamsters.
As for `FC(F)(F)c1ccc(-c2nc3ccc(C(F)(F)F)c(Cl)c3o2)cc1` [Example 7, 7-Chloro-6-trifluoromethyl-2-(4-trifluoromethylphenyl)benzoxazole], the “LDL cholesterol decreasing ratio (%)” value turned out to be 56.9%.

Staying with this assay, now noted: dose 0.2 mg/kg, oral once a day for seven days, high fat diet hamsters.
For `FC(F)(F)c1ccc(-c2nc3cc(C(F)(F)F)cc(Cl)c3o2)cc1` [Example 28, 7-Chloro-5-(trifluoromethyl)-2-[4-(trifluoromethyl)phenyl]benzoxazole], the “LDL cholesterol decreasing ratio (%)” value worked out at 63.6%.

The assay is the same for the next values; noted with them: dose 1 mg/kg, oral once a day for seven days, high fat diet hamsters.
For the compound `FC(F)(F)c1ccc(-c2nc3ccc(C(F)(F)F)cc3o2)cc1` [Example 24, 6-(Trifluoromethyl)-2-[4-(trifluoromethyl)phenyl]benzoxazole], the “LDL cholesterol decreasing ratio (%)” value stood at 32.6%.

As for `N#Cc1ccc2nc(-c3ccc(C(F)(F)F)cc3)oc2c1C(F)(F)F` [Example 19, 6-Cyano-7-trifluoromethyl-2-(4-trifluoromethylphenyl)benzoxazole], the “LDL cholesterol decreasing ratio (%)” value was 35.2%.

Still in this assay, the particulars now being: dose 5 mg/kg, oral once a day for seven days, high fat diet hamsters.
For the compound `FC(F)(F)c1ccc(-c2nc3ccc(I)c(Cl)c3o2)cc1` [Example 6, 7-Chloro-6-iodo-2-(4-trifluoromethylphenyl)benzoxazole], the “LDL cholesterol decreasing ratio (%)” value is given as 41.8%.

The assay is the same for the next values; noted with them: dose 50 mg/kg, oral once a day for seven days, high fat diet hamsters.
On to `CC(C)OC(=O)C(C)(C)Oc1ccc(C(=O)c2ccc(Cl)cc2)cc1` [Phenofibrate, reference compound], for which the “LDL cholesterol decreasing ratio (%)” value was determined as 25.7%.
